“Also recorded” adds a separate entry of the source. Like-named read-outs stand apart in the source and are kept apart here.
Experiments:
in vitro = type: cell-based, human; conditions: human, mean ± SEM; for CC50 at 48 h: half-maximal cytotoxicity concentration, Huh-7.5.1 cells, maximum dose tested 100 μM; for viability at 48 h, 50 µM / viability at 48 h, 100 µM: percentage of vehicle (0.1% DMSO) control; for viability at 48 h, 10 µM: 10 μM (controls)
Procedure: (§1) Huh-7.5.1 cells were maintained in Dulbecco's modified Eagle's medium (DMEM) containing 4.5 g/l D-glucose, 4 mM L-glutamine (Life Technologies), supplemented with 100 units/mL penicillin (Life Technologies), 100 μg/mL streptomycin (Life Technologies), non-essential amino acids (Sigma-Aldrich), 1 mM Hepes (Life Technologies) and 10% heat-inactivated fetal calf serum (FCS, Hyclone). […] In cell viability and HCV in vitro propagation experiments, the final concentration of DMSO was systematically adjusted to 0.1%.
(§2) HCVcc was generated from the FL-J6/JFH-5’C19Rluc2AUbi construct, a monocistronic, full-length HCV genome that expresses Renilla luciferase. It was produced and titrated as described elsewhere, except for the readout for luciferase activity measurement. Cell viability was evaluated with the Cell Proliferation Reagent WST-1 (Roche), according to the manufacturer’s instructions. Luciferase assays were performed according to the manufacturer’s instructions (Promega) and measurements were performed on a Centro XS3 LB960 luminometer (Berthold Technologies).
(§3) Cell viability and viral replication data from at least three independent experiments were analyzed. The IC50 values of the compounds were determined from dose-response curves generated with seven to 12 concentrations of each compound. Curves were fitted to the data points by nonlinear regression analysis and IC50 values were interpolated from the resulting curves with GraphPad Prism 5.00 software.
(§4) We evaluated the anti-HCV activity of the 10 atranorin-related compounds, using a virus grown in cell culture (HCVcc) with a modification of its genome resulting in expression of the Renilla luciferase reporter gene. […] These two compounds are known to interfere with the entry and replication steps of viral cycle, respectively. […] The first experimental procedure used involved the preincubation of human hepatic Huh-7.5.1 cells for 1 h with various doses of the molecules. The cells were then cultured in the presence of both the molecules tested and the virus, for an additional 48 h. At the end of the incubation period, we assessed cell viability and viral replication. This protocol made it possible to test the effects of molecules on both virus entry and replication.

Huh-7.5.1 cells [1] = assay: in vitro; type: cell-based, human; conditions: for Effect on cell viability signal: high doses, up to 100 μM; for Effect on cell viability signal / CC50: 48 h; for CC50: half-maximal cytotoxicity concentration, Huh-7.5.1 cells, mean ± SEM, maximum dose tested 100 μM
Procedure: as §1, §2, §3, §4

Huh-7.5.1 cells [2] = assay: Cell viability in the inoculation/replication (I, R, I/R) procedure; type: cell-based, human
Procedure: (§5) An experimental procedure was designed to determine the inhibitor class (entry or replication) to which compounds 1, 5 and 6 belonged. HCVcc were added to the cell culture during a limited time window (around 17 h). The cells were then washed to eliminate viruses from the inoculum and viral replication was allowed to take place for an additional 30 h. The selected compounds were present in the culture medium during inoculation (I), replication (R), or both these phases (inoculation and replication, I/R). […] In terms of antiviral activity, we expected to obtain two inhibition profiles for the luminescence signal, depending on the step of the viral lifecycle targeted by the drug (Fig. 4B). […] The inhibitory effect on the establishment of replication (R conditions) observed at high doses was probably due principally to the inhibition of new infection cycles initiated by virions produced by cells infected with the inoculum. A different profile was obtained for telaprevir. […] Its presence in the medium from inoculation onwards prevented the priming of the infection process at the viral polyprotein maturation step, which normally takes place after the translation of the HCV genome issued from the infecting virus. This maturation step is also repeated during the replication phase, for amplification of the viral genome and virion assembly. It is therefore not surprising that inhibition was strongest when telaprevir was present throughout the viral lifecycle (I/R), as there was probably an additive effect. […] The chemical group in this position seems to influence not only the potency of the molecule, but also its mechanism of action. Further studies are required to identify the processes involved because, for example, we cannot rule out a role in the inhibition of viral entry for compounds 5 and 6, even though they appeared to act as replication inhibitors in this experiment. It could be hypothesized that the replacement of a methyl or hydroxymethyl by an aldehyde group in position C-3 would lead to a loss of replication inhibition, but maintenance of the ability to inhibit viral entry.
(§6) Fig 4 Effects of compounds 1, 5 and 6 on cell viability and HCV propagation in vitro. One day after seeding at 50,000 cells/cm^2, Huh-7.5.1 cells were infected with HCVcc at a MOI ~ 0.03 for 17 h (inoculation phase: I). The inoculum was removed and cell cultures were washed before the addition of new medium and incubation for an additional 30 h (replication phase: R). […] (A) Cell viability and (B) viral replication were assessed at the end of the incubation period. Results are expressed as percentages (mean ± SEM; n = 3) of the mean values obtained for the respective control cultures, in which cells were incubated with vehicle (0.1% DMSO) alone.

HCVcc [3] = assay: Targeted stage of HCV life cycle: compounds present during inoculation (I), replication (R) or both (I/R), luciferase readout; type: cell-based, hepatitis C virus; conditions: for Inhibition profile / step of HCV lifecycle targeted: compounds present during I (17 h), R (30 h) or I/R
Procedure: as §5
Fig 4 Effects of compounds 1, 5 and 6 on cell viability and HCV propagation in vitro. One day after seeding at 50,000 cells/cm^2, Huh-7.5.1 cells were infected with HCVcc at a MOI ~ 0.03 for 17 h (inoculation phase: I). The inoculum was removed and cell cultures were washed before the addition of new medium and incubation for an additional 30 h (replication phase: R). Compounds were present at various concentrations either during both phases (I/R: black circles and solid lines) or during only one phase (I: black squares and dotted lines; R: black triangles and dashed lines). (A) Cell viability and (B) viral replication were assessed at the end of the incubation period. Results are expressed as percentages (mean ± SEM; n = 3) of the mean values obtained for the respective control cultures, in which cells were incubated with vehicle (0.1% DMSO) alone.

HCVcc [4] = assay: Anti-HCV activity: HCVcc expressing Renilla luciferase in Huh-7.5.1 cells, luciferase readout; type: cell-based, hepatitis C virus; conditions: for IC50: Hepatitis C virus, Huh-7.5.1 cells infected with HCVcc, 1 h preincubation then 48 h with virus, mean ± SEM, three experiments; for SI (selectivity index): ratio of CC50 to IC50; for Anti-HCV activity: HCVcc in Huh-7.5.1 cells, up to 100 μM
Procedure: as §1, with “0.1%. We checked that this amount of DMSO had no effect on the biological cycle of HCVcc in vitro (data not shown).” for “0.1%.”
as §2, §3
We evaluated the anti-HCV activity of the 10 atranorin-related compounds, using a virus grown in cell culture (HCVcc) with a modification of its genome resulting in expression of the Renilla luciferase reporter gene. […] These two compounds are known to interfere with the entry and replication steps of viral cycle, respectively. The maximum dose of each tested compound was 100 μM, because most of these molecules became insoluble in aqueous solution at higher concentrations. The first experimental procedure used involved the preincubation of human hepatic Huh-7.5.1 cells for 1 h with various doses of the molecules. The cells were then cultured in the presence of both the molecules tested and the virus, for an additional 48 h. At the end of the incubation period, we assessed cell viability and viral replication. This protocol made it possible to test the effects of molecules on both virus entry and replication. […] Remarkably, compound 6 tended to give a slightly, but reproducibly higher viability signal when used at high doses, with a peak at about 50 μM. […] At concentrations greater than 50 μM, cytotoxic effects emerged, as shown by the decrease of the viability signal.

[5] = Stability of the molecule in solution; type: physicochemical; conditions: even if dissolved immediately before use
[6] = Cell viability in the inoculation/replication (I, R, I/R) procedure; type: cell-based, human; conditions: human; I, R, I/R incubation conditions
Procedure: as §5, §6

[7] = percentage of vehicle control, n = 3

Row | SMILES | CC50 at 48 h (in vitro) [µM] | viability at 48 h, 50 µM (in vitro; n = 3) [%] | viability at 48 h, 100 µM (in vitro; n = 3) [%] | Effect on cell viability signal (Huh-7.5.1 cells [1]) | Inhibition profile / step of HCV lifecycle targeted (HCVcc [3]) | IC50 (HCVcc [4]) [µM] | other results
1 | COC(=O)c1c(C)cc(OC(=O)c2c(C)cc(O)c(C=O)c2O)c(C)c1O [Compound 1, atranorin] | > 100 | 95.9 ± 4.5 | 91.8 ± 5.9 | minimal loss of signal | inhibited only viral entry; also recorded: effects similar to those of erlotinib | 22.3 ± 8 | Effect on cell viability (Huh-7.5.1 cells [2]; regardless of incubation conditions (I, R, I/R)): no effect on cell viability; Inhibitory effect when present only during inoculation (HCVcc [3]; I condition only, up to 100 μM): no inhibitory effect
2 | COC(=O)c1c(C)cc(OC(=O)c2c(C)cc(O)c(/C=C/C(C)=O)c2O)c(C)c1O [Compound 2, (E)-[3-hydroxy-4-(methoxycarbonyl)-2,5-dimethylphenyl]-2,4-dihydroxy-6-methyl-3-(3-oxobut-1-en-yl) benzoate] | > 100 | 110 ± 5.9 | 107 ± 5.7 | – | – | 64.5 ± 26.5 | Stability in solution [5]: instability of the molecule in solution; melting point: 234 to 236 °C (dec.)
3 | COC(=O)c1c(C)cc(OC(=O)c2c(C)cc(O)cc2O)c(C)c1O [Compound 3, methyl-3’-methyllecanorate] | 82 | 52.7 ± 0.6 | 63.1 ± 2.9 | – | – | 25.4 ± 1.7 | CC50 (Huh-7.5.1 cells [1]): 81.9 ± 13.6 µM; SI (selectivity index) (HCVcc [4]): 3.2
4 | COC(=O)c1c(C)cc(OC(=O)c2c(C)cc(O)c(C(=O)O)c2O)c(C)c1O [Compound 4, cladonioidesin] | > 100 | 104 ± 2.5 | 90.4 ± 3.4 | minimal loss of signal | – | > 100 | Anti-HCV activity (HCVcc [4]): inactive
5 | COC(=O)c1c(C)cc(OC(=O)c2c(C)cc(O)c(CO)c2O)c(C)c1O [Compound 5, Methyl-8-hydroxy-4-O-demethylbarbatate] | 106 | 88.4 ± 7.3 | 55.8 ± 5.9 | – | interfered with viral replication; also recorded: profiles typical of replication inhibitors | 11.8 ± 1.1 | CC50 (Huh-7.5.1 cells [1]): 106 ± 7.3 µM; CC50 [6]: ~100 µM; SI (selectivity index) (HCVcc [4]): 8.9
6 | COC(=O)c1c(C)cc(OC(=O)c2c(C)cc(O)c(C)c2O)c(C)c1O [Compound 6, Methyl-4-O-demethylbarbatate] | > 100 | 145 ± 3.2 | 81.6 ± 20.6 | – | interfered with viral replication; also recorded: profiles typical of replication inhibitors | 13.3 ± 1.6 | Concentration above which cytotoxic effects emerged (Huh-7.5.1 cells [1]; decrease of the viability signal): greater than 50 μM; Concentration of the peak of the higher viability signal (Huh-7.5.1 cells [1]; slightly higher viability signal at high doses, modest stimulation of cell proliferation): about 50 μM; Cytotoxicity at 100 μM (Huh-7.5.1 cells [2]; 100 μM, except in R conditions): induced some cytotoxicity
7 | COC(=O)c1c(C)cc(O)c(C)c1O [Compound 7, methyl-2,4-dihydroxy-3,6-dimethylbenzoate] | > 100 | 101 ± 5.6 | 97.3 ± 6.2 | – | – | 50.6 ± 5 | –
8 | COC(=O)c1c(C)cc(O)cc1O [Compound 8, methyl orsellinate] | > 100 | 106 ± 2.9 | 93.4 ± 4.2 | minimal loss of signal | – | ≥ 100 | Anti-HCV activity (HCVcc [4]): inactive
9 | Cc1cc(O)c(C=O)c(O)c1 [Compound 9, atranol] | > 100 | 91.1 ± 3.5 | 78.7 ± 2.3 | minimal loss of signal | – | 40.3 ± 0.6 | –
10 | COC(=O)c1c(C)cc(O)c(C=O)c1O [Compound 10, methyl haematommate] | > 100 | 88.1 ± 5.5 | 72.2 ± 2 | minimal loss of signal | – | 55.5 ± 7.9 | –
11 | C#Cc1cccc(Nc2ncnc3cc(OCCOC)c(OCCOC)cc23)c1 [Erlotinib, erlotinib, reference compound] | – | – | – | – | most efficient if present at least during the initial interaction between cells and viruses | 0.64 ± 0.18 | viability at 48 h, 10 µM (in vitro; [7]): 86.5 ± 5.1%; Effect on cell viability (Huh-7.5.1 cells [2]): small anti-proliferative effect
12 | CCC[C@H](NC(=O)[C@@H]1[C@H]2CCC[C@H]2CN1C(=O)[C@@H](NC(=O)[C@@H](NC(=O)c1cnccn1)C1CCCCC1)C(C)(C)C)C(=O)C(=O)NC1CC1 [Telaprevir, telaprevir, reference compound] | – | – | – | – | inhibitory action regardless of the experimental conditions (I or R) | 0.18 ± 0.02 | viability at 48 h, 5 µM (in vitro; 5 μM (controls), percentage of vehicle control, n = 3): 101.9 ± 0.9%; viability at 48 h, 10 µM (in vitro; [7]): 94.1 ± 4%

— paper PMC4368788, “Depsides: Lichen Metabolites Active against Hepatitis C Virus” (PLoS ONE, 2015)
